Among the data in patent US20240208992A1, “MACROCYCLES AS CFTR MODULATORS” (Idorsia Pharmaceuticals Ltd, priority 2021, published 2024) are EC50 and Emax values, retold here.

The target in the test is human F508del-CFTR (Homo sapiens, UniProt P13569, DEL508-508). In words: F508del-CFTR cell surface expression (corrector activity), DiscoveRx ß-galactosidase complementation chemiluminescence assay in recombinant U2OS cell line.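 As to all read-outs here: U2OS cells co-expressing ProLink-tagged F508del-CFTR and a membrane-anchored enzyme acceptor, where more surface CFTR restores β-galactosidase activity measured by chemiluminescence.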 As to conditions: U2OS cells, 16h compound incubation; for EC50: EC50, F508del-CFTR cell surface expression, geomean of several measurements; for Emax: U2OS, in relation to the Emax of the corrector lumacaftor (=100%), arithmetic mean.
human F508del-CFTR, sequence (P13569 with tags, fused parts or gaps DEL508-508): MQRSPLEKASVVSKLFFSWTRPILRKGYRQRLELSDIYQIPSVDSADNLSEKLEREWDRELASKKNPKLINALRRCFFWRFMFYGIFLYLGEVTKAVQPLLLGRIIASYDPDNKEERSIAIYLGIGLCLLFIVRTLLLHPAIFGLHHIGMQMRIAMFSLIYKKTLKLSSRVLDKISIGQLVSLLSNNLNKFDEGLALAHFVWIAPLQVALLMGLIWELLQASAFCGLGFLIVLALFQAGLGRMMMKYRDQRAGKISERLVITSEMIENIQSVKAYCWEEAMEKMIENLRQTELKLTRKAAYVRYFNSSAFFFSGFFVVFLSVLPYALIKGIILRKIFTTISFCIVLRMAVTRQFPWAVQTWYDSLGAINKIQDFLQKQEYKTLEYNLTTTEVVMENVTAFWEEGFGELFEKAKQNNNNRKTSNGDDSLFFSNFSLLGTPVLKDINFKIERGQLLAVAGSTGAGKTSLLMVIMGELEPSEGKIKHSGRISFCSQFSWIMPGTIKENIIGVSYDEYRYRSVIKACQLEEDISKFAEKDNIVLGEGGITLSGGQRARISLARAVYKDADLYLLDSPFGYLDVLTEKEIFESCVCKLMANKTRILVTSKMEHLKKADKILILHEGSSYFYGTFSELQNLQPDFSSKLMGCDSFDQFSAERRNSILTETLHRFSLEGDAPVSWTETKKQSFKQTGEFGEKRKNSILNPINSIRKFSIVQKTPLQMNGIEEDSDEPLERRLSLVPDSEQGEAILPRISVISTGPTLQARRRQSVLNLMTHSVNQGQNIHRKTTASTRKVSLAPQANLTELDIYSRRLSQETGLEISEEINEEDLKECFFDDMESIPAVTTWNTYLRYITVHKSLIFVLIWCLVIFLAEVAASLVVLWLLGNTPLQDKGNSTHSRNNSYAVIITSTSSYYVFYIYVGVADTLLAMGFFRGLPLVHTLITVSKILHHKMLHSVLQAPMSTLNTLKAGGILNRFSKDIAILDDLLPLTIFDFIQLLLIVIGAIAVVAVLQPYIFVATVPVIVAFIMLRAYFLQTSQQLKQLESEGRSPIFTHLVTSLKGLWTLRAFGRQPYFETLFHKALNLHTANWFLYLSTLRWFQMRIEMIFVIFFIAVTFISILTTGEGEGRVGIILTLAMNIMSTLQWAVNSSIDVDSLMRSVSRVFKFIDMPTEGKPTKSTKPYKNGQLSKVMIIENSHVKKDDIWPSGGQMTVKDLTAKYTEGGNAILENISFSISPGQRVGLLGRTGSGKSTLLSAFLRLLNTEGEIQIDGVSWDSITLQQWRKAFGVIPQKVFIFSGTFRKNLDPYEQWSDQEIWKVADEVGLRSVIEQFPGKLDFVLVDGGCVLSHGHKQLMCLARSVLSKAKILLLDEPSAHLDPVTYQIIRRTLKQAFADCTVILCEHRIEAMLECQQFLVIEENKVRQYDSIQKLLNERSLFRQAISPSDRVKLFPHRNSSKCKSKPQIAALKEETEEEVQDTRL

What is called EC50 is the concentration that produces a half-maximal response. Broadly, the Emax is the maximal effect, on the per cent scale that the assay sets. As for `CC(C)C[C@H]1C(=O)N(C)[C@H](CCc2nc(-c3ccc(F)cn3)no2)C(=O)N[C@H](Cc2ccccc2)COc2cnc3ccc(F)cc3c2C(=O)N[C@H](C(=O)NCCc2noc(C3CC3)n2)CC(=O)N1C` [Example 887, (3S,7S,10R,13R)-13-benzyl-N-(2-(5-cyclopropyl-1,2,4-oxadiazol-3-yl)ethyl)-20-fluoro-10-(2-(3-(5-fluoropyridin-2-yl)-1,2,4-oxadiazol-5-yl)ethyl)-7-isobutyl-6,9-dimethyl-1,5,8,11-tetraoxo-1,2,3,4,5,6,7,8,9,10,11,12,13,14-tetradecahydro-[1]oxa[4,7,10,14]tetraazacycloheptadecino[17,16-c]quinoline-3-carboxamide], the EC50 came to 111 nM and the Emax came to 340%.

As for `Cc1cc2c(c3cccnc13)C(=O)N[C@H](C(=O)NCCn1nnc(C3CC3)n1)CC(=O)N(C)[C@@H](CC(C)C)C(=O)N1CCCC[C@@H]1C(=O)N[C@H](Cc1ccccc1)CO2` [Example 888, (9S,13S,19aR,22R)-22-benzyl-N-(2-(5-cyclopropyl-2H-tetrazol-2-yl)ethyl)-13-isobutyl-2,12-dimethyl-7,11,14,20-tetraoxo-7,8,9,10,11,12,13,14,17,18,19,19a,20,21,22,23-hexadecahydro-16H-pyrido[2′,1′:6,7][1]oxa[4,7,10,14]tetraazacycloheptadecino[16,17-f]quinoline-9-carboxamide], the EC50 stood at 170 nM and the Emax was 410%.

As for `Cc1cc2c3c(ccc2cn1)OC[C@@H](Cc1ccccc1)NC(=O)[C@@H](Cc1nc(C(F)(F)F)no1)N(C)C(=O)[C@H](CC(C)C)N(C)C(=O)C[C@@H](C(=O)NCCc1noc(C2CC2)n1)NC3=O` [Example 889, (3S,7S,10R,13R)-13-benzyl-N-(2-(5-cyclopropyl-1,2,4-oxadiazol-3-yl)ethyl)-7-isobutyl-6,9,20-trimethyl-1,5,8,11-tetraoxo-10-((3-(trifluoromethyl)-1,2,4-oxadiazol-5-yl)methyl)-1,2,3,4,5,6,7,8,9,10,11,12,13,14-tetradecahydro-[1]oxa[4,7,10,14]tetraazacycloheptadecino[16,17-f]isoquinoline-3-carboxamide], the half-maximal effective concentration (EC50) was 34 nM and the Emax stood at 403%.

On to `Cc1cc2c3c(ccc2cn1)OC[C@@H](Cc1ccccc1)NC(=O)[C@@H](Cc1nc(C(F)(F)F)no1)N(C)C(=O)[C@H](CC(C)C)N(C)C(=O)C[C@@H](C(=O)NCCn1nnc(C2CC2)n1)NC3=O` [Example 890, (3S,7S,10R,13R)-13-benzyl-N-(2-(5-cyclopropyl-2H-tetrazol-2-yl)ethyl)-7-isobutyl-6,9,20-trimethyl-1,5,8,11-tetraoxo-10-((3-(trifluoromethyl)-1,2,4-oxadiazol-5-yl)methyl)-1,2,3,4,5,6,7,8,9,10,11,12,13,14-tetradecahydro-[1]oxa[4,7,10,14]tetraazacycloheptadecino[16,17-f]isoquinoline-3-carboxamide], for which the 50% effective concentration (EC50) amounted to 34 nM and the Emax turned out to be 409%.

Take `CC(C)C[C@H]1C(=O)N(C)[C@H](Cc2nc(-c3ccc(F)cn3)no2)C(=O)N[C@H](Cc2ccccc2)COc2ccc3ncc(F)cc3c2C(=O)N[C@H](C(=O)NC[C@@H](O)c2nc(C3CC3)no2)CC(=O)N1C` [Example 892, (3S,7S,10R,13R)-13-benzyl-N-((R)-2-(3-cyclopropyl-1,2,4-oxadiazol-5-yl)-2-hydroxyethyl)-20-fluoro-10-((3-(5-fluoropyridin-2-yl)-1,2,4-oxadiazol-5-yl)methyl)-7-isobutyl-6,9-dimethyl-1,5,8,11-tetraoxo-1,2,3,4,5,6,7,8,9,10,11,12,13,14-tetradecahydro-[1]oxa[4,7,10,14]tetraazacycloheptadecino[16,17-f]quinoline-3-carboxamide]: the EC50 stood at 467 nM and the Emax stood at 442%.

Take `CC(C)C[C@H]1C(=O)N(C)[C@H](CC(F)F)C(=O)N[C@H](Cc2ccccc2)COc2ccc3ncc(F)cc3c2C(=O)N[C@H](C(=O)NCCn2nnc(C3CC3)n2)CC(=O)N1C` [Example 893, (3S,7S,10R,13R)-13-benzyl-N-(2-(5-cyclopropyl-2H-tetrazol-2-yl)ethyl)-10-(2,2-difluoroethyl)-20-fluoro-7-isobutyl-6,9-dimethyl-1,5,8,11-tetraoxo-1,2,3,4,5,6,7,8,9,10,11,12,13,14-tetradecahydro-[1]oxa[4,7,10,14]tetraazacycloheptadecino[16,17-f]quinoline-3-carboxamide]: the EC50 turned out to be 216 nM and the maximum response (Emax) was found to be 394%.

With `CCOCC[C@@H]1C(=O)N[C@H](Cc2ccccc2)COc2ccc3ncc(F)cc3c2C(=O)N[C@H](C(=O)NCCc2cc(C)no2)CC(=O)N(C)[C@@H](CC(C)C)C(=O)N1C` [Example 894, (3S,7S,10R,13R)-13-benzyl-10-(2-ethoxyethyl)-20-fluoro-7-isobutyl-6,9-dimethyl-N-(2-(3-methylisoxazol-5-yl)ethyl)-1,5,8,11-tetraoxo-1,2,3,4,5,6,7,8,9,10,11,12,13,14-tetradecahydro-[1]oxa[4,7,10,14]tetraazacycloheptadecino[16,17-f]quinoline-3-carboxamide], the EC50 came to 339 nM and the Emax turned out to be 431%.

For `CCOCC[C@@H]1C(=O)N[C@H](Cc2ccccc2)COc2ccc3ncc(F)cc3c2C(=O)N[C@H](C(=O)NCCc2cc(OC)no2)CC(=O)N(C)[C@@H](CC(C)C)C(=O)N1C` [Example 895, (3S,7S,10R,13R)-13-benzyl-10-(2-ethoxyethyl)-20-fluoro-7-isobutyl-N-(2-(3-methoxyisoxazol-5-yl)ethyl)-6,9-dimethyl-1,5,8,11-tetraoxo-1,2,3,4,5,6,7,8,9,10,11,12,13,14-tetradecahydro-[1]oxa[4,7,10,14]tetraazacycloheptadecino[16,17-f]quinoline-3-carboxamide], the EC50 is 136 nM and the Emax is 409%.

`CCOCC[C@@H]1C(=O)N[C@H](Cc2ccccc2)COc2ccc3ncc(F)cc3c2C(=O)N[C@H](C(=O)NCCn2nnc(C3CC3)n2)CC(=O)N(C)[C@@H](CC(C)C)C(=O)N1C` [Example 896, (3S,7S,10R,13R)-13-benzyl-N-(2-(5-cyclopropyl-2H-tetrazol-2-yl)ethyl)-10-(2-ethoxyethyl)-20-fluoro-7-isobutyl-6,9-dimethyl-1,5,8,11-tetraoxo-1,2,3,4,5,6,7,8,9,10,11,12,13,14-tetradecahydro-[1]oxa[4,7,10,14]tetraazacycloheptadecino[16,17-f]quinoline-3-carboxamide]: the EC50 came out at 188 nM and the Emax was found to be 427%.

In the case of `COc1cc(CCNC(=O)[C@@H]2CC(=O)N(C)[C@@H](CC(C)C)C(=O)N(C)[C@H](Cc3nc(C(F)(F)F)no3)C(=O)N[C@H](Cc3ccccc3)COc3cc(C)nc(OC)c3C(=O)N2)on1` [Example 897, (3R,6R,9S,13S)-3-benzyl-9-isobutyl-16-methoxy-N-(2-(3-methoxyisoxazol-5-yl)ethyl)-7,10,18-trimethyl-5,8,11,15-tetraoxo-6-((3-(trifluoromethyl)-1,2,4-oxadiazol-5-yl)methyl)-2,3,4,5,6,7,8,9,10,11,12,13,14,15-tetradecahydropyrido[3,4-p][1]oxa[4,7,10,14]tetraazacycloheptadecine-13-carboxamide], the half-maximal effective concentration (EC50) is 32 nM and the Emax was 454%.
